# Test results published in patent publication US20210369640A1, “COMPOSITION CONTAINING SESQUITERPENE DERIVATIVE AS ACTIVE INGREDIENT FOR PREVENTION OR TREATMENT OF MUSCLE DISEASES” (INDUSTRY-ACADEMIC COOPERATION FOUNDATION, YONSEI UNIVERSITY, priority 2017, published 2021).
# Assays:
# [1] = system: mouse myoblast cell line (C2C12 cells); experiment: Myotube thickness in dexamethasone-treated mouse myoblasts (Giemsa-Wright staining, ImageJ); type: cell-based; details: 100 μM, vs dexamethasone alone; for increase in thickness of myotubes reduced by dexamethasone: co-treated with 50 μM dexamethasone for two days from day 4 of differentiation, quantified using ImageJ
# Method: A mouse myoblast cell line (C2C12 cells) was purchased from ATCC (Manassas, Va., USA), and the purchased cells were incubated in a 5% CO2 incubator at 37° C. using 10% fetal bovine serum media (Gibco-BRL). When the confluency of the incubated cells became 80%, the myoblasts were allowed to differentiate into myotubes using 2% horse serum media (Gibco-BRL). The mouse myoblasts incubated in Preparation Example 1 were co-treated with 50 dexamethasone (dexa; Sigma) and 100 μM of sesquiterpene derivatives (experimental materials) for two days from day 4 of differentiation of the mouse myoblasts. An experiment was conducted in the same manner as in Example 1, except for treatment with 50 μM of dexamethasone (dexa; Sigma) instead of the sesquiterpene derivatives (experimental materials). […] When the fixing was completed, the myotubes were naturally dried at room temperature for 10 minutes, and then a Giemsa-Wright staining solution (Asan Pharmaceutical, Seoul), which specifically stains myotubes, was dropped onto the myotubes and left for 30 minutes to stain the myotubes. […] Six sections were randomly selected from each well and micrographed, and the thickness of at least […] myotubes from each well was analyzed (three repetitions/group).
# MaFbx/atrogin1 = experiment: RT-PCR of MaFbx/atrogin1 gene expression in dexamethasone-treated mouse myoblasts; type: cell-based; details: 100 μM, co-treated with dexamethasone; FIG. 3B
# Method: (§1) A mouse myoblast cell line (C2C12 cells) was purchased from ATCC (Manassas, Va., USA), and the purchased cells were incubated in a 5% CO2 incubator at 37° C. using 10% fetal bovine serum media (Gibco-BRL). When the confluency of the incubated cells became 80%, the myoblasts were allowed to differentiate into myotubes using 2% horse serum media (Gibco-BRL).
# (§2) The mouse myoblasts incubated in Preparation Example 1 were co-treated with 50 dexamethasone (dexa; Sigma) and 100 μM of sesquiterpene derivatives (experimental materials) for two days from day 4 of differentiation of the mouse myoblasts.
# (§3) An experiment was conducted in the same manner as in Example 1, except for treatment with 50 μM of dexamethasone (dexa; Sigma) instead of the sesquiterpene derivatives (experimental materials).
# (§4) 334 μl of a TRIzol solution per 1×10^7 mouse myoblasts of Example 1 was added and replaced, followed by centrifugation at 12,000×g and 4° C. for 10 minutes. The supernatant was transferred to a new tube and then 67 μl of chloroform was added thereto, followed by vortexing. […] The concentration of the extracted RNA samples was measured at wavelengths of 260 nm and 280 nm using a UV/VIS spectrometer (Beckman Coulter, DU730), and was subjected to agarose gel electrophoresis to confirm the integrity of RNA samples. […]
# C57BL/6N mice [2] = experiment: Grip strength test; type: in vivo, mouse; details: 200 mpk orally once a day, week 12 of breeding
# Description: (§5) 32 5-week-old male C57BL/6N mice (Orient, Korea) were adapted to a laboratory environment for one week with a commercial normal diet (rodent chow), and then randomly divided into four groups (chow vehicle group, chow α-cedrene group, HFD vehicle group, and HFD α-cedrene group) according to a randomized block design and bred for a total of 10 weeks.
# (§6) While mice bred in Preparation Example 2 were fed a normal diet for 10 weeks, 200 mpk α-cedrene was orally administered to the mice once a day.
# A procedure was carried out in the same manner as in Example 2, except that the mice were fed a high-fat experimental diet (HFD: 40% high fat energy, 17 g lard+3% corn oil/100 g diet). […]
# The grip strength of the mice of Examples 2 and 3 and Comparative Examples 2 and 3 was measured at week 12 of breeding using a grip strength meter for mice (DJ2-248, Daejong Instrument Industry Co., Ltd., Korea). In particular, a force (N) for mice to hold onto a wire mesh was measured while mounting the four feet of mice on a wire mesh to which a gauge was attached, and pulling the tails of the mice backward. The measurement was successively performed five times, and the maximum value was determined as grip strength. To normalize the experimental results, grip strength (N) divided by body weight […] was calculated.
# MuRF1 = experiment: RT-PCR of MuRF1 gene expression in dexamethasone-treated mouse myoblasts; type: cell-based; details: 100 μM, co-treated with dexamethasone; FIG. 3B
# Method: as §1, §2, §3, §4
# mouse gastrocnemius = experiment: H&E staining of muscle tissue, fiber diameter; type: in vivo; details: 200 mpk orally once a day, vs vehicle
# Description: as §5, §6
# (§7) A procedure was carried out in the same manner as in Example 2, except that the mice were fed a high-fat experimental diet (HFD: 40% high fat energy, 17 g lard+3% corn oil/100 g diet).
# (§8) A procedure was carried out in the same manner as in Example 2, except that a vehicle was orally administered instead of 200 mpk α-cedrene, while a commercial normal diet (rodent chow) was ingested.
# (§9) A procedure was carried out in the same manner as in Comparative Example 2, except that a high-fat diet (HFD: 40% high fat energy) was ingested.
# Muscle tissues of mice were extracted, fixed in 10% formalin, and then stained with hematoxylin and eosin (H&E) after requesting Korea CFC (Gyeonggi-do, Korea) to do so, and observed using an optical microscope (IX71, Olympus, JPN) and photographed using a digital camera (DP71, Olympus, JPN).
# p-4E-BP1 protein = experiment: Western blotting of p-4E-BP1 in dexamethasone-treated mouse myoblasts; type: cell-based; details: 100 μM, co-treated with dexamethasone; FIG. 3A
# Method: (§10) The mouse myoblasts incubated in Preparation Example 1 were co-treated with 50 dexamethasone (dexa; Sigma) and 100 μM of sesquiterpene derivatives (experimental materials) for two days from day 4 of differentiation of the mouse myoblasts. An experiment was conducted in the same manner as in Example 1, except for treatment with 50 μM of dexamethasone (dexa; Sigma) instead of the sesquiterpene derivatives (experimental materials). To perform western blotting on cells, a lysis buffer containing 500 μL of 100 mM Tris-HCl, pH 7.4, 5 mM EDTA, 50 mM sodium pyrophosphate, 50 mM NaF, 100 mM orthovanadate, 1% Triton X-100, 1 mM phenylmethanesulfonyl fluoride, 2 μg/mL of aprotinin, 1 μg/mL of pepstatin A, and 1 μg/mL of leupeptin was added to each well from which media were removed, the cells were harvested, and then centrifuged at 1,300×g and 4° C. for 20 minutes, and then the middle layer was taken, and the concentrations of proteins were quantified by the Bradford method (Bio-Rad). 40 μg of the quantified proteins were electrophoresed by SDS-polyacrylamide gel, and then the separated proteins were transferred to nitrocellulose membranes (Amersham, Buckinghamshire, UK). […] Bands visualized on the X-ray film were scanned and quantified using Quantity One analysis software (Bio-Rad).
# p-p70S6K1 protein = experiment: Western blotting of p-p70S6K1 in dexamethasone-treated mouse myoblasts; type: cell-based; details: 100 μM, co-treated with dexamethasone; FIG. 3A
# Method: as §10
# C57BL/6N mice [3] = experiment: Four limb hanging test; type: in vivo, mouse; details: 200 mpk orally once a day; for hanging time: FIG. 5A; for hanging time multiplied by body weight: FIG. 5B
# Description: as §5, §6, §7, §8, §9
# To measure the limb muscle strength of mice, the time that the mice of Examples 2 and 3 and Comparative Examples 2 and 3 hung upside down using their four feet was measured at week 12 of breeding. The time (seconds) that the mice hung upside down in a cage equipped with a wire mesh cover (diameter <0.5 cm) (20×30×50 cm, Jeung-Do Bio & Plant Co., Ltd, Korea) was measured a total of three times, and a rest period of 30 minutes or longer was given between measurements. Experimental results were obtained by multiplying hanging time (sec) by body weight (kg).
# [4] = high-fat diet, vs HFD vehicle group
# [5] = normal diet, vs chow vehicle group
smiles,measurement,setting,value
C[C@@H]1CC[C@H]2C(C)(C)[C@H]3C[C@@]12CC1OC13C (some centres unmarked) [cedrene epoxide],increase in thickness of myotubes reduced by dexamethasone,[1],38%
"CC1=CC[C@@]23C[C@@H]1C(C)(C)C2CC[C@H]3C (stereo partly drawn) [cedrene, α-cedrene]",expression of MaFbx/atrogin1,MaFbx/atrogin1,significantly reduced
same,increase in grip strength,C57BL/6N mice [2]; [4],31%
same,increase in grip strength,C57BL/6N mice [2]; [5],26%
same,expression of MuRF1,MuRF1,significantly reduced
same,increase in fiber diameter of the mouse gastrocnemius,mouse gastrocnemius; CHOW group,21%
same,increase in fiber diameter of the mouse gastrocnemius,mouse gastrocnemius; HFD group,27%
same,amount of p-4E-BP1 protein reduced by dexamethasone,p-4E-BP1 protein,significantly increased
same,amount of p-p70S6K protein reduced by dexamethasone,p-p70S6K1 protein,significantly increased
same,hanging time,C57BL/6N mice [3]; [4],significantly increased
same,hanging time multiplied by body weight,C57BL/6N mice [3]; [4],significantly increased
same,hanging time,C57BL/6N mice [3]; [5],significantly increased
same,hanging time multiplied by body weight,C57BL/6N mice [3]; [5],significantly increased
same,increase in thickness of myotubes reduced by dexamethasone,[1],58%
same,"thickness of myotubes reduced by dexamethasone (visually confirmed, FIG. 1A)",[1]; co-treated with dexamethasone,increased
CC1=CCC23CC1C(C)(CO)C2CCC3C (centres unmarked) [cedrenol],increase in thickness of myotubes reduced by dexamethasone,[1],43%
C[C@@H]1CC[C@H]2C(C)(C)[C@H]3C[C@@]12CC[C@@]3(C)O [cedrol],increase in thickness of myotubes reduced by dexamethasone,[1],40%
CC(=O)O[C@]1(C)CC[C@@]23C[C@@H]1C(C)(C)[C@@H]2CC[C@H]3C [cedryl acetate],increase in thickness of myotubes reduced by dexamethasone,[1],51%
CC(=O)C1=C(C)[C@@H]2C[C@@]3(C1)[C@H](C)CC[C@H]3C2(C)C [methyl cedryl ketone],increase in thickness of myotubes reduced by dexamethasone,[1],32%
C=C1CC[C@@]23C[C@@H]1C(C)(C)C2CC[C@H]3C (stereo partly drawn) [β-cedrene],increase in thickness of myotubes reduced by dexamethasone,[1],36%
